Experimental data taken from patent US20150119247A1, “Composition and Method for Stress Mitigation in Plants” (Stoller Enterprises, Inc., priority 2011, published 2015).

Legend:
Assay type in all cases: in vivo
field corn = assay: Field corn yield trials, Ohio, cytokinin with low potassium; details: potassium ½ lb. to 1 lb. per acre with cytokinin (X-Cyte) 1 pint per acre; unreplicated field trials over three years
Description: In this example, the effect of the plant growth regulator/hormone, cytokinin, applied together with low concentrations of potassium, was observed. The cytokinin that was field-applied was X-Cyte, as previously disclosed. In these unreplicated field trials, conducted in Ohio over a three year period, potassium at ½ lb. to 1 lb. per acre and cytokinin at 1 pint per acre were applied to field corn. The average increase in yield attained by applying potassium, in addition to cytokinin, was approximately fifteen (15) bushels per acre.

Arabidopsis thaliana = assay: High temperature seed/silique development, first experiment (FIG. 1)
Description: These experiments employed the model crop plant, Arabidopsis thaliana, whose genome was mapped as early as the year 2000. To ensure uniformity, the tested plants were selected such that they were in the beginning stages of flowering and had balanced numbers of flowers across groups. The control agent as well as all tested agents were applied in a water solution containing 0.01% Silwet® super spreader (obtained from General Electric) to the leaves and flowers (i.e., foliage) of the tested plants. […] The third and fourth agents tested consisted of 6-benzyl adenine (6-BA) and kinetin (KIN)—both cytokinins—each applied at the rate of 100 μg/1 (0.1 ppm). […] Aqueous solutions of the tested agents prepared to the stated concentrations/doses were sprayed onto test groups of flowers and leaves (i.e., foliage) of Arabidopsis thaliana until runoff at one day prior to heat exposure and again at four days after the beginning of heat exposure. The total duration of heat exposure was fourteen (14) days. […] The seed pods (i.e. siliques), filled with developed seeds (siliques >7 mm long and/or >1 mm wide and/or bearing seeds), were counted just prior to the beginning of the experiment, and again after fourteen (14) days of heat exposure treatments.

field-grown corn crops = assay: Field-grown corn treated before the reproductive stage, Weslaco, Tex.: yield and seed size
Description: In this example, the effect of the plant growth regulator cytokinin, specifically kinetin, and applied at various times before the reproductive stages of growth, was observed. In Table 2, V7, V10, V13, and V16 refer to stages of growth of the corn plant. V7 refers to the growth stage where the collar of the seventh leaf is visible, V10 refers to the growth stage where the collar of the tenth leaf is visible, V13 refers to the growth stage where the collar of the thirteenth leaf is visible, and V16 refers to the growth stage where the collar of the sixteenth leaf is visible. V16 is also just prior to the reproductive stage of growth. The corn crops were grown in Weslaco, Tex. The water levels were either none (i.e., simply rain referred to as dryland), or drip through a “drip tape” (i.e., drip irrigation whereby sufficient water was applied for more optimal growth of the crop). Results are given for yield (measured in bushels per acre), and the weight of the seed (measured in grams per 1,000 kernels). T tests indicate whether there were differences.

[1] = system: field-grown beans (i.e., lima beans); assay: Lima bean field yield, Gustine, CA, 2010; details: aqueous kinetin solution applied to foliage just prior to flowering at one pint per acre or two pints per acre; up to approx. 35 degrees Celsius
Protocol: In this example, the effect of the plant growth regulator cytokinin, specifically kinetin, applied at the beginning of flowering and two to four weeks thereafter to field-grown beans (i.e., lima beans) in Gustine, Calif. was observed. Growing temperatures up to approximately 35 degrees Celsius were recorded. […] The difference of “t” test of 5% is significant.

[2] = EXPT 1, stage V10, variety B25DC25 R80, drip
[3] = EXPT 1, stage V16, variety B25DC25 R80, drip
[4] = EXPT 2, stage V10, variety Asgrow 7573, dry land
[5] = EXPT 3, stage V7, variety H2684162, dry land
[6] = EXPT 3, stage V10, variety H2684162, dry land
[7] = EXPT 3, stage V13, variety H2684162, dry land
[8] = EXPT 3, stage V16, variety H2684162, dry land

[K+] [potassium]
average increase in yield by applying potassium in addition to cytokinin (field corn): ~15 bushels per acre

OC[C@H]1O[C@@](CO)(O[C@H]2O[C@H](CO)[C@@H](O)[C@H](O)[C@H]2O)[C@@H](O)[C@@H]1O [sucrose]
sugar/photosynthate deficiency (plant autophagy) (Arabidopsis thaliana; sucrose solutions of 20 mM and 100 mM sprayed on foliage, 14 days heat exposure): alleviated the sugar/photosynthate deficiency

c1coc(CNc2ncnc3[nH]cnc23)c1 [kinetin]
number of seeds (i.e., siliques) (Arabidopsis thaliana; 100 μg/l (0.1 ppm) sprayed on foliage 1 day before and 4 days after start of heat, 14 days at 33-36 degrees Celsius days): increased number of seeds | 1,000 Kernel wt g (field-grown corn crops; [2]): 298 g | Yield Bu/acre (field-grown corn crops; [2]): 259 Bu/acre | 1,000 Kernel wt g (field-grown corn crops; [3]): 298 g | Yield Bu/acre (field-grown corn crops; [3]): 311 Bu/acre | 1,000 Kernel wt g (field-grown corn crops; [4]): 244 g | Yield Bu/acre (field-grown corn crops; [4]): 149 Bu/acre | 1,000 Kernel wt g (field-grown corn crops; [5]): 295 g | Yield Bu/acre (field-grown corn crops; [5]): 212 Bu/acre | 1,000 Kernel wt g (field-grown corn crops; [6]): 296 g | Yield Bu/acre (field-grown corn crops; [6]): 211 Bu/acre | 1,000 Kernel wt g (field-grown corn crops; [7]): 299 g | Yield Bu/acre (field-grown corn crops; [7]): 208 Bu/acre | 1,000 Kernel wt g (field-grown corn crops; [8]): 296 g | Yield Bu/acre (field-grown corn crops; [8]): 207 Bu/acre | yield versus untreated control (field-grown corn crops; all treatments (stages V7 to V16, drip and dryland)): enhanced yield in a highly significant fashion | seed size versus untreated control (field-grown corn crops; dryland conditions (no added water or irrigation)): increased seed size in a highly significant fashion | lima bean yields [1]: increased significantly
